Measured values published in PubChem BioAssay AID330 (DTP/NCI, 2004).
Several values for one entry are separate records, joined by “and”; a condition that tells them apart may be missing. Equal values may be shown once. Inconclusive results and toxic doses are left out. The calls were made as follows: active = survival T/C of 150% or more; inactive = T/C below 125% in these data.

Test system: P388 leukemia ip, CD2F1 mice, survival T/C
Test: NCI In Vivo Anticancer Drug Screen. Data for tumor model P388 Leukemia (intraperitoneal) in CD2F1 (CDF1) mice
Settings: endpoint: median survival time, higher = longer survival
Summary of the method: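 Mice carrying the transplanted tumor received test compound or vehicle. Survival was recorded in each group, and the value is the treated-group measurement divided by that of the vehicle-treated control group.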

[1] = dose: 50.0 mg/kg/injection, schedule: Q01DX005 (ip), vehicle: saline with Tween-80
[2] = dose: 100.0 mg/kg/injection, schedule: Q01DX005 (ip), vehicle: saline with Tween-80
[3] = dose: 60.0 mg/kg/injection, schedule: Q01DX005 (ip), vehicle: Klucel (hydroxypropylcellulose) (HPC)
[4] = dose: 120.0 mg/kg/injection, schedule: Q01DX005 (ip), vehicle: Klucel (hydroxypropylcellulose) (HPC)
[5] = dose: 100.0 mg/kg/injection, schedule: Q01DX001 (ip), vehicle: Klucel (hydroxypropylcellulose) (HPC)
[6] = dose: 200.0 mg/kg/injection, schedule: Q01DX001 (ip), vehicle: Klucel (hydroxypropylcellulose) (HPC)
[7] = dose: 400.0 mg/kg/injection, schedule: Q01DX001 (ip), vehicle: Klucel (hydroxypropylcellulose) (HPC)
[8] = dose: 100.0 mg/kg/injection, schedule: Q01DX005 (ip), vehicle: Klucel (hydroxypropylcellulose) (HPC)
[9] = dose: 200.0 mg/kg/injection, schedule: Q01DX005 (ip), vehicle: Klucel (hydroxypropylcellulose) (HPC)
[10] = dose: 50.0 mg/kg/injection, schedule: Q01DX009 (ip), vehicle: saline
[11] = dose: 100.0 mg/kg/injection, schedule: Q01DX009 (ip), vehicle: saline
[12] = dose: 200.0 mg/kg/injection, schedule: Q01DX009 (ip), vehicle: saline

Measured: T/C

O=c1c2ccccc2sc2c(N(CCO)CCO)cc3c(c12)CCCC3
inactive: dose: 25.0 mg/kg/injection, schedule: Q01DX005 (ip), vehicle: distilled water + Tween-80 103 % of control | dose: 50.0 mg/kg/injection, schedule: Q01DX005 (ip), vehicle: distilled water + Tween-80 101 % of control | dose: 100.0 mg/kg/injection, schedule: Q01DX005 (ip), vehicle: distilled water + Tween-80 100 % of control | dose: 200.0 mg/kg/injection, schedule: Q01DX005 (ip), vehicle: distilled water + Tween-80 95 % of control

O=S=NSc1c(F)c(F)c(F)c(F)c1F
inactive: [1] 104 % of control | [2] 111 % of control

Cc1cc(C)nc(NC(N)=NCCc2ccccc2)n1
inactive: dose: 12.5 mg/kg/injection, schedule: Q04DX003 (ip), vehicle: saline with Tween-80 104 % of control | dose: 25.0 mg/kg/injection, schedule: Q04DX003 (ip), vehicle: saline with Tween-80 100 % of control | dose: 50.0 mg/kg/injection, schedule: Q04DX003 (ip), vehicle: saline with Tween-80 100 % of control

COc1cccc(-c2nc(-c3ccccc3)nc(N(C)C)n2)c1O
inactive: [3] 98 % of control | [4] 92 % of control

O=C1c2cccc(NCC3CO3)c2C(=O)c2cccc(NCC3CO3)c21 (configuration not stated)
inactive: dose: 0.75 mg/kg/injection, schedule: Q01DX005 (ip), vehicle: Klucel (hydroxypropylcellulose) (HPC) 99 % of control | dose: 1.5 mg/kg/injection, schedule: Q01DX005 (ip), vehicle: Klucel (hydroxypropylcellulose) (HPC) 107 % of control | dose: 3.0 mg/kg/injection, schedule: Q01DX005 (ip), vehicle: Klucel (hydroxypropylcellulose) (HPC) 100 % of control | dose: 6.0 mg/kg/injection, schedule: Q01DX005 (ip), vehicle: Klucel (hydroxypropylcellulose) (HPC) 96 % of control

NC(=S)N/N=C/c1c(Cl)nc2n1CCS2
inactive: [5] 94 % of control | [6] 93 % of control | [7] 92 % of control

O=C(O)CCSCCCCCCCCCCSCCC(=O)O
inactive: dose: 50.0 mg/kg/injection, schedule: Q01DX005 (ip), vehicle: Klucel (hydroxypropylcellulose) (HPC) 98 % of control | [8] 93 % of control | [9] 86 % of control

O/N=C/c1cccc(O)c1O
inactive: [1] 96 % of control | [2] 107 % of control

NC(=S)c1ccc(C=Nc2ccc(C(N)=S)cc2)cc1
inactive: [5] 87 % of control | [6] 91 % of control | [7] 88 % of control

C=C1C(=O)CC2C3C1C2(C)CCC(OC(C)=O)C3(C)C (configuration not stated)
inactive: dose: 5.5 mg/kg/injection, schedule: Q01DX005 (ip), vehicle: Klucel (hydroxypropylcellulose) (HPC) 93 % of control | dose: 11.0 mg/kg/injection, schedule: Q01DX005 (ip), vehicle: Klucel (hydroxypropylcellulose) (HPC) 93 % of control | dose: 22.0 mg/kg/injection, schedule: Q01DX005 (ip), vehicle: Klucel (hydroxypropylcellulose) (HPC) 100 % of control | dose: 44.0 mg/kg/injection, schedule: Q01DX005 (ip), vehicle: Klucel (hydroxypropylcellulose) (HPC) 103 % of control

CCOC(=O)CSc1nnc(-c2cc(OC)c(OCC)c(OC)c2)o1
inactive: dose: 62.5 mg/kg/injection, schedule: Q01DX001 (ip), vehicle: Klucel (hydroxypropylcellulose) (HPC) 102 % of control | dose: 125.0 mg/kg/injection, schedule: Q01DX001 (ip), vehicle: Klucel (hydroxypropylcellulose) (HPC) 102 % of control | dose: 250.0 mg/kg/injection, schedule: Q01DX001 (ip), vehicle: Klucel (hydroxypropylcellulose) (HPC) 100 % of control

COC(=O)c1nc(N)nc(C(=O)OC)c1C(=O)c1ccncc1
inactive: [3] 92 % of control | [4] 96 % of control

O=[N+]([O-])c1ccc(CN2CCC(C(=S)Nc3ccccc3)=C2c2ccccc2)cc1
inactive: dose: 6.25 mg/kg/injection, schedule: Q01DX005 (ip), vehicle: Klucel (hydroxypropylcellulose) (HPC) 92 % of control | dose: 12.5 mg/kg/injection, schedule: Q01DX005 (ip), vehicle: Klucel (hydroxypropylcellulose) (HPC) 90 % of control | dose: 25.0 mg/kg/injection, schedule: Q01DX005 (ip), vehicle: Klucel (hydroxypropylcellulose) (HPC) 87 % of control | [8] 92 % of control | [9] 87 % of control

OC(CC1(O)C(F)(F)C(F)(F)C1(F)F)c1ccccc1 (configuration not stated)
inactive: dose: 100.0 mg/kg/injection, schedule: Q04DX003 (ip), vehicle: saline with Tween-80 100 % of control | dose: 200.0 mg/kg/injection, schedule: Q04DX003 (ip), vehicle: saline with Tween-80 90 % of control

Cc1nc(N)n[nH]1
inactive: [10] 102 % of control | [11] 109 % of control | [12] 105 % of control | dose: 400.0 mg/kg/injection, schedule: Q01DX009 (ip), vehicle: saline 96 % of control

COc1ccc(N2C(=O)C3CSCN3C2=O)cc1 (configuration not stated)
inactive: dose: 60.0 mg/kg/injection, schedule: Q01DX005 (ip), vehicle: saline with Tween-80 100 % of control | dose: 120.0 mg/kg/injection, schedule: Q01DX005 (ip), vehicle: saline with Tween-80 94 % of control | dose: 240.0 mg/kg/injection, schedule: Q01DX005 (ip), vehicle: saline with Tween-80 92 % of control

COC(=O)c1ccc(Cl)cc1OC
inactive: dose: 12.5 mg/kg/injection, schedule: Q01DX009 (ip), vehicle: distilled water + Tween-80 101 % of control | dose: 25.0 mg/kg/injection, schedule: Q01DX009 (ip), vehicle: distilled water + Tween-80 99 % of control | dose: 50.0 mg/kg/injection, schedule: Q01DX009 (ip), vehicle: distilled water + Tween-80 99 % of control | dose: 100.0 mg/kg/injection, schedule: Q01DX009 (ip), vehicle: distilled water + Tween-80 101 % of control | dose: 200.0 mg/kg/injection, schedule: Q01DX009 (ip), vehicle: distilled water + Tween-80 101 % of control

CN(C)c1ccc(/C=[N+](\C)[O-])cc1
inactive: [10] 91 % of control | [11] 98 % of control | [12] 95 % of control

CN1CCC2(CC1)N=C1CCN(C)CC1S2 (configuration not stated)
inactive: dose: 100.0 mg/kg/injection, schedule: Q01DX001 (ip), vehicle: saline with Tween-80 102 % of control | dose: 200.0 mg/kg/injection, schedule: Q01DX001 (ip), vehicle: saline with Tween-80 109 % of control

CC(CN1CCOCC1)(CN1CCOCC1)[N+](=O)[O-]
inactive: dose: 12.5 mg/kg/injection, schedule: Q01DX009 (ip), vehicle: saline 111 % of control | dose: 25.0 mg/kg/injection, schedule: Q01DX009 (ip), vehicle: saline 110 % of control | [10] 107 % of control and 111 % of control | [11] 115 % of control

O=C(C1CC2C=CC1C2)N1CCCCC1 (configuration not stated)
inactive: [10] 90 % of control | [11] 91 % of control | [12] 98 % of control

COc1ccc(/C=N/N(C)C(=O)Nc2cccc(Cl)c2)cc1OC
inactive: dose: 50.0 mg/kg/injection, schedule: Q01DX009 (ip), vehicle: saline with Tween-80 98 % of control | dose: 100.0 mg/kg/injection, schedule: Q01DX009 (ip), vehicle: saline with Tween-80 98 % of control | dose: 200.0 mg/kg/injection, schedule: Q01DX009 (ip), vehicle: saline with Tween-80 105 % of control

CCCCOP(=O)(OCCCC)OC(=C(F)F)C(F)(F)P(=O)(OCCCC)OCCCC
inactive: dose: 6.25 mg/kg/injection, schedule: Q01DX009 (ip), vehicle: Klucel (hydroxypropylcellulose) (HPC) 98 % of control | dose: 12.5 mg/kg/injection, schedule: Q01DX009 (ip), vehicle: Klucel (hydroxypropylcellulose) (HPC) 91 % of control | dose: 25.0 mg/kg/injection, schedule: Q01DX009 (ip), vehicle: Klucel (hydroxypropylcellulose) (HPC) 100 % of control
